# Assay results: US20120270819A1, “USE OF COMPOUNDS WITH SGLT-1/SGLT-2 INHIBITOR ACTIVITY FOR PRODUCING MEDICAMENTS FOR TREATMENT OF BONE DISEASE” (SANOFI, priority 2009, published 2012)
# Columns and labels:
# [1] = tested on: female Sprague-Dawley mature and young adult rats; experiment: Animal study of bone quality, daily oral gavage for a minimum of 28 days (overall findings, histopathology); type: in vivo, rat
# Description: (§1) The following were evaluated: clinical signs (at least weekly), body weight (weekly), food consumption (weekly), hormones (Days 13 and 27), serum and urinary biochemical markers of bone turnover (Days 13 and 27), serum chemistry (at necropsy), bone densitometry by dual energy X-ray absorptiometry (DXA) and peripheral quantitative computed tomography (pQCT) (Week 2 and 4, as well as ex vivo), macroscopic observations at necropsy, organ weights, histopathology, biomechanical strength testing and femoral length measurements.
# [2] = tested on: female Sprague-Dawley mature and young adult rats; experiment: Ex vivo dual energy X-ray absorptiometry (DXA) of right femur, 28-day oral rat study; type: in vivo
# Description: as §1
# 3.1 Ex Vivo Dual Energy X-Ray Absorptiometry (DXA)
# DXA was used to measure bone mineral density (BMD), bone mineral content (BMC) and area. Single DXA scans were obtained for the excised right femur from all animals euthanized at the end of the treatment period (except three animals due to damaged femoral condyles) as well as two found dead animals. These exclusions had no adverse impact on the overall outcome of the study as sufficient specimens were measured in each groups. Scans were performed with a Hologic Discovery A bone densitometer as per PCS-MTL Standard Operating Procedures.
# [3] = Mature Adults, 10 mg/kg/day (Table 5a)
# [4] = Mature Adults, 10 mg/kg/day, mean
# [5] = Mature Adults, 10 mg/kg/day, mean (Table 5a)
# [6] = Mature Adults, 50 mg/kg/day (Table 5a)
# [7] = Mature Adults, 50 mg/kg/day, mean
# [8] = Mature Adults, 50 mg/kg/day, mean (Table 5a)
# [9] = Young Adults, 10 mg/kg/day (Table 6a)
# [10] = Young Adults, 10 mg/kg/day, mean
# [11] = Young Adults, 10 mg/kg/day, mean (Table 6a)
# [12] = Young Adults, 50 mg/kg/day (Table 6a)
# [13] = Young Adults, 50 mg/kg/day, mean
# [14] = Young Adults, 50 mg/kg/day, mean (Table 6a)
compound,measurement,setting,value
COc1ccc(Cc2c(OC3OC(CO)C(F)C(O)C3O)n[nH]c2C(F)(F)F)cc1 (centres unmarked) [Example 5 of formula II],effects on bone mass and bone strength associated parameters,"[1]; both dose levels (10, 50 mg/kg/day), both rat populations",positive effects
same,trabecular bone noted histopathologically,[1]; young only,increase in trabecular bone
same,"DXA femur Distal Area, percent difference from Vehicle Control","[2]; Mature Adults, 10 mg/kg/day",1.7%
same,"DXA femur Distal BMC, percent difference from Vehicle Control","[2]; Mature Adults, 10 mg/kg/day",6.2%
same,"DXA femur Distal BMD, percent difference from Vehicle Control","[2]; Mature Adults, 10 mg/kg/day",4.4%
same,"DXA femur Global Area, percent difference from Vehicle Control","[2]; Mature Adults, 10 mg/kg/day",1.9%
same,"DXA femur Global BMC, percent difference from Vehicle Control","[2]; Mature Adults, 10 mg/kg/day",6.0%
same,"DXA femur Global BMD, percent difference from Vehicle Control","[2]; Mature Adults, 10 mg/kg/day",4.0%
same,"DXA femur Mid Area, percent difference from Vehicle Control","[2]; Mature Adults, 10 mg/kg/day",3.9%
same,"DXA femur Mid BMC, percent difference from Vehicle Control","[2]; Mature Adults, 10 mg/kg/day",6.4%
same,"DXA femur Mid BMD, percent difference from Vehicle Control","[2]; Mature Adults, 10 mg/kg/day",2.4%
same,"DXA femur Proximal Area, percent difference from Vehicle Control","[2]; Mature Adults, 10 mg/kg/day",2.4%
same,"DXA femur Proximal BMC, percent difference from Vehicle Control","[2]; Mature Adults, 10 mg/kg/day",6.1%
same,"DXA femur Proximal BMD, percent difference from Vehicle Control","[2]; Mature Adults, 10 mg/kg/day",3.7%
same,"DXA femur Mid Area, percent difference from Vehicle Control",[2]; [3],3.86%
same,"DXA femur Mid BMC, percent difference from Vehicle Control",[2]; [3],6.45%
same,"DXA femur Mid BMD, percent difference from Vehicle Control",[2]; [3],2.35%
same,DXA femur Distal Area,[2]; [4],0.41 cm^2
same,DXA femur Distal BMC,[2]; [4],0.14 g
same,DXA femur Distal BMD,[2]; [4],0.34 g/cm^2
same,DXA femur Global Area,[2]; [4],1.91 cm^2
same,DXA femur Global BMC,[2]; [4],0.52 g
same,DXA femur Global BMD,[2]; [4],0.27 g/cm^2
same,DXA femur Mid Area,[2]; [4],0.45 cm^2
same,DXA femur Mid BMC,[2]; [4],0.11 g
same,DXA femur Mid BMD,[2]; [4],0.24 g/cm^2
same,DXA femur Proximal Area,[2]; [4],0.63 cm^2
same,DXA femur Proximal BMC,[2]; [4],0.18 g
same,DXA femur Proximal BMD,[2]; [4],0.28 g/cm^2
same,DXA femur Mid Area,[2]; [5],0.45 cm^2
same,DXA femur Mid BMC,[2]; [5],0.11 g
same,DXA femur Mid BMD,[2]; [5],0.24 g/cm^2
same,"DXA femur Distal Area, percent difference from Vehicle Control","[2]; Mature Adults, 50 mg/kg/day",−0.1%
same,"DXA femur Distal BMC, percent difference from Vehicle Control","[2]; Mature Adults, 50 mg/kg/day",8.3%
same,"DXA femur Distal BMD, percent difference from Vehicle Control","[2]; Mature Adults, 50 mg/kg/day",8.4%
same,"DXA femur Global Area, percent difference from Vehicle Control","[2]; Mature Adults, 50 mg/kg/day",−1.2%
same,"DXA femur Global BMC, percent difference from Vehicle Control","[2]; Mature Adults, 50 mg/kg/day",3.7%
same,"DXA femur Global BMD, percent difference from Vehicle Control","[2]; Mature Adults, 50 mg/kg/day",5.0%
same,"DXA femur Mid Area, percent difference from Vehicle Control","[2]; Mature Adults, 50 mg/kg/day",−1.0%
same,"DXA femur Mid BMC, percent difference from Vehicle Control","[2]; Mature Adults, 50 mg/kg/day",1.2%
same,"DXA femur Mid BMD, percent difference from Vehicle Control","[2]; Mature Adults, 50 mg/kg/day",2.3%
same,"DXA femur Proximal Area, percent difference from Vehicle Control","[2]; Mature Adults, 50 mg/kg/day",0.1%
same,"DXA femur Proximal BMC, percent difference from Vehicle Control","[2]; Mature Adults, 50 mg/kg/day",3.0%
same,"DXA femur Proximal BMD, percent difference from Vehicle Control","[2]; Mature Adults, 50 mg/kg/day",2.9%
same,"DXA femur Mid Area, percent difference from Vehicle Control",[2]; [6],−0.97%
same,"DXA femur Mid BMC, percent difference from Vehicle Control",[2]; [6],1.25%
same,"DXA femur Mid BMD, percent difference from Vehicle Control",[2]; [6],2.26%
same,DXA femur Distal Area,[2]; [7],0.41 cm^2
same,DXA femur Distal BMC,[2]; [7],0.14 g
same,DXA femur Distal BMD,[2]; [7],0.35 g/cm^2
same,DXA femur Global Area,[2]; [7],1.85 cm^2
same,DXA femur Global BMC,[2]; [7],0.51 g
same,DXA femur Global BMD,[2]; [7],0.27 g/cm^2
same,DXA femur Mid Area,[2]; [7],0.43 cm^2
same,DXA femur Mid BMC,[2]; [7],0.11 g
same,DXA femur Mid BMD,[2]; [7],0.24 g/cm^2
same,DXA femur Proximal Area,[2]; [7],0.61 cm^2
same,DXA femur Proximal BMC,[2]; [7],0.17 g
same,DXA femur Proximal BMD,[2]; [7],0.28 g/cm^2
same,DXA femur Mid Area,[2]; [8],0.43 cm^2
same,DXA femur Mid BMC,[2]; [8],0.11 g
same,DXA femur Mid BMD,[2]; [8],0.24 g/cm^2
same,"DXA femur Distal Area, percent difference from Vehicle Control","[2]; Young Adults, 10 mg/kg/day",1.7%
same,"DXA femur Distal BMC, percent difference from Vehicle Control","[2]; Young Adults, 10 mg/kg/day",6.4%
same,"DXA femur Distal BMD, percent difference from Vehicle Control","[2]; Young Adults, 10 mg/kg/day",4.7%
same,"DXA femur Global Area, percent difference from Vehicle Control","[2]; Young Adults, 10 mg/kg/day",−2.5%
same,"DXA femur Global BMC, percent difference from Vehicle Control","[2]; Young Adults, 10 mg/kg/day",0.5%
same,"DXA femur Global BMD, percent difference from Vehicle Control","[2]; Young Adults, 10 mg/kg/day",3.2%
same,"DXA femur Mid Area, percent difference from Vehicle Control","[2]; Young Adults, 10 mg/kg/day",−0.9%
same,"DXA femur Mid BMC, percent difference from Vehicle Control","[2]; Young Adults, 10 mg/kg/day",−2.6%
same,"DXA femur Mid BMD, percent difference from Vehicle Control","[2]; Young Adults, 10 mg/kg/day",−1.9%
same,"DXA femur Proximal Area, percent difference from Vehicle Control","[2]; Young Adults, 10 mg/kg/day",−2.6%
same,"DXA femur Proximal BMC, percent difference from Vehicle Control","[2]; Young Adults, 10 mg/kg/day",−0.8%
same,"DXA femur Proximal BMD, percent difference from Vehicle Control","[2]; Young Adults, 10 mg/kg/day",1.8%
same,"DXA femur Mid Area, percent difference from Vehicle Control",[2]; [9],−0.89%
same,"DXA femur Mid BMC, percent difference from Vehicle Control",[2]; [9],−2.61%
same,"DXA femur Mid BMD, percent difference from Vehicle Control",[2]; [9],−1.87%
same,DXA femur Distal Area,[2]; [10],0.37 cm^2
same,DXA femur Distal BMC,[2]; [10],0.10 g
same,DXA femur Distal BMD,[2]; [10],0.26 g/cm^2
same,DXA femur Global Area,[2]; [10],1.45 cm^2
same,DXA femur Global BMC,[2]; [10],0.30 g
same,DXA femur Global BMD,[2]; [10],0.21 g/cm^2
same,DXA femur Mid Area,[2]; [10],0.39 cm^2
same,DXA femur Mid BMC,[2]; [10],0.07 g
same,DXA femur Mid BMD,[2]; [10],0.17 g/cm^2
same,DXA femur Proximal Area,[2]; [10],0.50 cm^2
same,DXA femur Proximal BMC,[2]; [10],0.11 g
same,DXA femur Proximal BMD,[2]; [10],0.22 g/cm^2
same,DXA femur Mid Area,[2]; [11],0.39 cm^2
same,DXA femur Mid BMC,[2]; [11],0.07 g
same,DXA femur Mid BMD,[2]; [11],0.17 g/cm^2
same,"DXA femur Distal Area, percent difference from Vehicle Control","[2]; Young Adults, 50 mg/kg/day",0.5%
same,"DXA femur Distal BMC, percent difference from Vehicle Control","[2]; Young Adults, 50 mg/kg/day",8.4%
same,"DXA femur Distal BMD, percent difference from Vehicle Control","[2]; Young Adults, 50 mg/kg/day",7.9%
same,"DXA femur Global Area, percent difference from Vehicle Control","[2]; Young Adults, 50 mg/kg/day",−4.7%
same,"DXA femur Global BMC, percent difference from Vehicle Control","[2]; Young Adults, 50 mg/kg/day",0.0%
same,"DXA femur Global BMD, percent difference from Vehicle Control","[2]; Young Adults, 50 mg/kg/day",4.9%
same,"DXA femur Mid Area, percent difference from Vehicle Control","[2]; Young Adults, 50 mg/kg/day",−0.8%
same,"DXA femur Mid BMC, percent difference from Vehicle Control","[2]; Young Adults, 50 mg/kg/day",−3.2%
same,"DXA femur Mid BMD, percent difference from Vehicle Control","[2]; Young Adults, 50 mg/kg/day",−2.6%
same,"DXA femur Proximal Area, percent difference from Vehicle Control","[2]; Young Adults, 50 mg/kg/day",−4.9%
same,"DXA femur Proximal BMC, percent difference from Vehicle Control","[2]; Young Adults, 50 mg/kg/day",−4.0%
same,"DXA femur Proximal BMD, percent difference from Vehicle Control","[2]; Young Adults, 50 mg/kg/day",1.0%
same,"DXA femur Mid Area, percent difference from Vehicle Control",[2]; [12],−0.77%
same,"DXA femur Mid BMC, percent difference from Vehicle Control",[2]; [12],−3.16%
same,"DXA femur Mid BMD, percent difference from Vehicle Control",[2]; [12],−2.62%
same,DXA femur Distal Area,[2]; [13],0.37 cm^2
same,DXA femur Distal BMC,[2]; [13],0.10 g
same,DXA femur Distal BMD,[2]; [13],0.27 g/cm^2
same,DXA femur Global Area,[2]; [13],1.42 cm^2
same,DXA femur Global BMC,[2]; [13],0.30 g
same,DXA femur Global BMD,[2]; [13],0.21 g/cm^2
same,DXA femur Mid Area,[2]; [13],0.39 cm^2
same,DXA femur Mid BMC,[2]; [13],0.07 g
same,DXA femur Mid BMD,[2]; [13],0.17 g/cm^2
same,DXA femur Proximal Area,[2]; [13],0.49 cm^2
same,DXA femur Proximal BMC,[2]; [13],0.11 g
same,DXA femur Proximal BMD,[2]; [13],0.21 g/cm^2
same,DXA femur Mid Area,[2]; [14],0.39 cm^2
same,DXA femur Mid BMC,[2]; [14],0.07 g
same,DXA femur Mid BMD,[2]; [14],0.17 g/cm^2
